Earlier results, collected in publication PMC9199361 (Inorganic chemistry, 2020).

Legend:
[1] = copper complex of the chelator
[2] = for log KML: copper(II) complex of the chelator
[3] = 5 M HCl, 90 °C

Row | E1/2 (V) [1] [V] | reversibility of the redox event at E1/2 [1] | log KML [2] | acid stability (conditions) [3] | thermodynamic stability constant (log KML) ([2]; copper(II) complex) | SMILES
1 | −0.980 | irrev | 21.9 | <4.5 min (5 M HCl, 90 °C) |  | O=C(O)CN1CCCN(CC(=O)O)CCN(CC(=O)O)CCCN(CC(=O)O)CC1 [TETA]
2 | −0.88 | quasi-rev | 27.1 | 254 h (5 M HCl, 90 °C) |  | O=C(O)CN1CCCN2CCN(CCCN(CC(=O)O)CC2)CC1 [CB-TE2A]
3 |  | irrev |  | <3 min (5 M HCl, 90 °C) | 21.9 | O=C(O)CN1CCN(CC(=O)O)CCN(CC(=O)O)CC1 [NOTA]
